Measurements taken from US8673548B2, “Genes and polypeptides relating to breast cancers” (Oncotherapy Science, Inc., priority 2006, dated 2014).
“Also recorded” adds a separate entry of the source.

Experiments:
CDK1-cyclin B1 = biological target: T1, CDK1-cyclin B1 (Homo sapiens, UniProt P06493); assay: in vitro kinase assay, CDK1-cyclin B1 phosphorylation of PBK/TOPK; format: biochemical; conditions: peptide 0-20 μM
T1 construct: purchased New England Biolabs
Procedure: After 30 minutes incubation at 30° C., the reactions were terminated by addition of SDS-sample buffer. After boiling, the protein samples were electrophoresed and autoradiographed.
(§1) To inhibit the phosphorylation of PBK/TOPK at Thr9 by CDK1-cyclin B1, we designed permeable peptide (pp1-18) identical to the N-terminus (1-18 amino acids) of PBK/TOPK ([…]-G-[…]: SEQ ID NO: 99) was synthesized by Sigma-Aldrich. The efficacy of the peptide blocking the CDK1-cyclin B1-induced phosphorylation of PBK/TOPK was estimated by in vitro kinase assay according to in vitro kinase section. […] The phosphorylation of PBK/TOPK and cyclin B1 proteins were observed by SDS-PAGE and autoradiography. For the cell proliferation assay, T47D and HMEC cells were seeded at 1.3×10^4 cells in a 12-well plate, respectively. At the following day, each concentration (0, 2.5, 5, and 10 μM) of pp1-18 peptide was treated everyday, and cell viability was measured by MTT assay at 5th day. A significance of the pp 1-18 peptide to suppress T47D cell growth was statistically evaluated by the Student's t-test. To inhibit the phosphorylation of PBK/TOPK in mitotic cells by using pp1-18 peptide, T47D cells were seeded at 1×10^5 cells in a 60 mm dish. […]

T47D cells [1] = assay: FACS cell cycle analysis with nocodazole and pp1-18; format: cell-based, human; conditions: 24 hours after treatment of nocodazole, 10 μM peptide
Description: as §1, with “dish. Two days after incubation, both nocodazole (0.3 μg/mL) and the permeable peptide (10 μM) were treated for further 18 or 24 hours before collection, and then phosphorylation of PBK/TOPK was investigated by western blotting using anti-PBK/TOPK monoclonal antibody and FACS analysis.” for “dish.”

HMEC cells = assay: cell proliferation MTT assay with pp1-18 peptide; format: cell-based, human; conditions: 0, 2.5, 5 and 10 μM every day; MTT at 5th day
Description: as §1, with “dish. Two days after incubation, both nocodazole (0.3 μg/mL) and the permeable peptide (10 μM) were treated for further 18 or 24 hours before collection, and then phosphorylation of PBK/TOPK was investigated by western blotting using anti-PBK/TOPK monoclonal antibody and FACS analysis.” for “dish.”

T47D cells [2] = assay: cell proliferation MTT assay with pp1-18 peptide; format: cell-based, human; conditions: 0, 2.5, 5 and 10 μM every day; MTT at 5th day
Description: as §1, with “dish. Two days after incubation, both nocodazole (0.3 μg/mL) and the permeable peptide (10 μM) were treated for further 18 or 24 hours before collection, and then phosphorylation of PBK/TOPK was investigated by western blotting using anti-PBK/TOPK monoclonal antibody and FACS analysis.” for “dish.”

PBK/TOPK = assay: western blot of PBK/TOPK phosphorylation in nocodazole-treated mitotic cells with pp1-18; format: cell-based, human; conditions: T47D; nocodazole plus 10 μM peptide, 18 or 24 hours
Description: as §1, with “dish. Two days after incubation, both nocodazole (0.3 μg/mL) and the permeable peptide (10 μM) were treated for further 18 or 24 hours before collection, and then phosphorylation of PBK/TOPK was investigated by western blotting using anti-PBK/TOPK monoclonal antibody and FACS analysis.” for “dish.”

T47D cells [3] = assay: phase contrast microscopy of cells treated with pp1-18; format: cell-based, human; conditions: 50 μM peptide

T1 sequence (P06493 whole entry): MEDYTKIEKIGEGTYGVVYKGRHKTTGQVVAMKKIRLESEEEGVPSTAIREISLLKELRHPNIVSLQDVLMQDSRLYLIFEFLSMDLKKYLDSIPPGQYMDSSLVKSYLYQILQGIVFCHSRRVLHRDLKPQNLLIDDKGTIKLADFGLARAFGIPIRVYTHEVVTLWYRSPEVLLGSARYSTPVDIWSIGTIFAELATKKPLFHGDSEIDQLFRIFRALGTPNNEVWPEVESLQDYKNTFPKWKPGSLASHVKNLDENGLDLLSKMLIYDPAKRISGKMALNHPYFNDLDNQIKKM
T1 sequence (P14635 whole entry partner): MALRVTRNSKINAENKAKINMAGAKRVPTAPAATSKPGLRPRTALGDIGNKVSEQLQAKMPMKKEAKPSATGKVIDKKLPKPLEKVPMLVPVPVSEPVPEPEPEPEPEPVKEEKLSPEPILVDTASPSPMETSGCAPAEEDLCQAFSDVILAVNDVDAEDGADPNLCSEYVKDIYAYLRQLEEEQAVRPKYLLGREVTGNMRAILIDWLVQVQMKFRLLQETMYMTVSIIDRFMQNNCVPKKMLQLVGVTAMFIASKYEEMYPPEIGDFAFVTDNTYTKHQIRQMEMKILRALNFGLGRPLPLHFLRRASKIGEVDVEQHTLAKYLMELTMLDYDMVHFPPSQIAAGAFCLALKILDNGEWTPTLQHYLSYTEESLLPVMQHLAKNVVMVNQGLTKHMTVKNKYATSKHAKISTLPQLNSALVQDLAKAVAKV

Substance: RRRRRRRRRRR-G-MEGISNFKTPSKLSEKKK (RRRRRRRRRRRGMEGISNFKTPSKLSEKKK; N-terminal poly-arginine (R11) and glycine linker; An artificialy designed dominant negative) [pp1-18]
- phosphorylation of recombinant PBK/TOPK protein by CDK1-cyclin B1 (CDK1-cyclin B1): diminished in dose-dependent manner
- shift to G2/M phase of cell cycle (T47D cells [1]): blocked shift to G2/M phase
- growth of HMEC cells (HMEC cells): did not affect the growth; also recorded: no effect
- growth of T47D breast cancer cells (T47D cells [2]): significantly suppressed cell growth; also recorded: clearly suppressed the growth
- phosphorylation of PBK/TOPK in mitotic cells (PBK/TOPK): drastically reduced
- cellular morphology (T47D cells [3]): long intercellular bridge; also recorded: prolonged midbodies by abnormal cytokinesis
